From publication PMC6584114, “Metabolism of IMM-H004 and Its Pharmacokinetic-Pharmacodynamic Analysis in Cerebral Ischemia/Reperfusion Injured Rats” (Frontiers in Pharmacology, 2019)
Read-outs that look alike come from different tables or passages of the source.

What was measured:
[1] = test system: PC12 cells; experiment: Neuroprotection in oxygen-glucose deprivation injured PC12 cells (MTT cell viability); format: cell-based
Method: The neuroprotective activity of IMM-H004 and IMM-H004G was evaluated on PC12 cells damaged by oxygen-glucose deprivation (OGD). PC12 cells were purchased from the American Type Culture Collection. Cultures were maintained at 37°C in 5% CO2 in a humidified incubator. For cell viability assay, PC12 cells were incubated in 96-well plates at a density of 5 × 10^4/ml for 24 h. In the sham group, PC12 cells were cultured in Dulbecco’s modified eagle medium supplemented with 5% fetal bovine serum and 5% equine serum (Gibco, USA). In the OGD group, PC12 cells were cultured in glucose-free Earle’s balanced salt solution supplemented with 15 mM Na2S2O4 for 2 h and then incubated with compounds of nerve growth factor (NGF, 10 μM), edaravone (10 μM, 50 μM), IMM-H004 (1 μM, 10 μM), and IMM-H004G (1 μM, 10 μM), respectively. After 24 h of incubation, MTT (5 mg/ml) was added into the cell cultures and incubated for an additional 4 h. Then the supernatant was removed and 100 μL DMSO was added. Absorbance was measured using an Ultramark microplate reader at a wavelength of 562 nm. The cell viability was expressed as a percentage of the absorbance density value of control cultures.

[2] = test system: primary human hepatocytes; experiment: IMM-H004 metabolism by primary human hepatocytes; format: in vitro ADME; settings: human hepatocytes incubated with 30 nM IMM-H004, up to 3 h
Method: Primary human hepatocytes were used to predict the metabolism of IMM-H004 in humans. Cryopreserved human hepatocytes were obtained from Bioreclamation IVT (Baltimore, MD, USA). Three different hepatocyte preparations (Lot CDP, ZHL, and DSX) were pooled in this study. Hepatocytes were resuspended and seeded in 96-well plates at a density of 0.7 × 10^6 cells/ml. After 24 h of culture, cells were washed with Hanks’ balanced salt solution, followed by addition of 30 nM IMM-H004 dissolved in Hanks’ balanced salt solution. Incubations were carried out at 37°C up to 3 h under gentle shaking. Cell culture supernatant was collected within 3 h and determined by LC-MS/MS. All experiments were conducted in triplicate.
(§1) The LC-MS/MS system consisted of Shimadzu 30A UPLC and API 4000 triple quadruple mass spectrometer (AB SCIEX, USA). Data acquisition and analysis were accomplished using Analyst 1.5.2 software. The analytes and IS were chromatographed by injection of 1 μL sample. The mobile phases consisted of solvent A (0.5% formic acid in water) and solvent B (0.5% formic acid in methanol) at a flow rate of 0.3 ml/min on an Eclipse Plus C18 column (2.1 mm × 50 mm, 3.5 μm, Agilent, USA), and the operating temperature was 40°C. The elution condition was 10% solvent B for 0.7 min, ascending to 98% B in 2.3 min, holding for 3.0 min and reequilibrating to 10% B within 0.1 min and maintained for 2.4 min (Jiang JW, 2018). The specific transitions monitored were 305→248 for IMM-H004, 291→234 for M1, 291→248 for M2, 481→305 for IMM-H004G, 385→305 for M4, and 260→183 for IS.

[3] = Plasma pharmacokinetics in MCAO/R rats after iv IMM-H004 citrate; format: in vivo; settings: rat, iv IMM-H004 citrate 10 mg/kg; for Tmax: iv, 10 mg/kg
Method: The plasma pharmacokinetics (PK) and pharmacodynamics (PD) of IMM-H004 and IMM-H004G were investigated in a cerebral ischemia-reperfusion rat model produced by middle cerebral artery occlusion/reperfusion (MCAO/R) after iv administration of IMM-H004. In brief, rats underwent a 1-h MCAO and then received IMM-H004 citrate (10 mg/kg, dissolved in saline to yield a concentration of 2 mg/ml) immediately after reperfusion, an effective dosing time as reported ([Zuo et al., 2015]; [Yang et al., 2017]). For sham surgery, all the arteries were exposed for the surgical period, but the filament was not inserted into the MCA. Blood samples were collected through external jugular vein cannula into heparinized tubes at 0.033, 0.167, 0.5, 1, 2, 4, 6, 8, 12, 24, 36, and 48 h postdose for IMM-H004 and IMM-H004G detection (50 μL of blood at each time point) and at 0.5, 1, 2, 4, 7, and 10 h postdose for malondialdehyde (MDA) detection (80 μL of blood at each time point). Plasma was immediately separated by centrifugation at 900×g for 5 min. Plasma concentrations of IMM-H004 and IMM-H004G in ischemia-reperfusion rats were determined by LC-MS/MS analysis. The PK parameters were calculated by noncompartmental analysis using WinNonlin Version 6.1 (Pharsight, Mountain View, CA). Plasma MDA concentrations in ischemia-reperfusion and sham rats within 24 h were estimated by enzyme-linked immunosorbent assay.
as §1

[4] = test system: MCAO/R rats; experiment: Neuroprotection in transient MCAO/R rats (infarct volume, neurological score); format: in vivo, rat; settings: 10 mg/kg iv after reperfusion, 24 h, vs model
Excerpt: Transient MCAO/R was applied to compare the neuroprotection of IMM-H004 and IMM-H004G. Rats were fasted overnight with free access to water and randomly assigned to different groups. Rats were anesthetized with a mixture of 5% isoflurane and 95% oxygen and maintained with a mixture of 3% isoflurane and 97% oxygen during the surgical procedure. A 4-0 nylon thread, the tip of which was burned (diameter 0.36 mm), was inserted into the right internal carotid artery and advanced until the origin of the right MCA was occluded. After 60 min of the occlusion, the thread was withdrawn to allow reperfusion, and then the rats were returned to the chamber. Saline or edaravone at dose of 6 mg/kg or IMM-H004 citrate and IMM-H004G at dose of 10 mg/kg (dissolved in saline to yield a concentration of 2 mg/ml) were administered by intravenous injection immediately after reperfusion.
The rats were assessed for neurologic deficits at 24 h after reperfusion according to Zea Longa’s five-point scale. […] The animals without symptoms of neurological impairment or dying after the surgery were rejected. All animals were killed 24 h after reperfusion. Brains of the animals were removed and cut into 2 mm-thick slices, for a total of six slices per animal. The slices were immersed in a 2% solution of 2,3,5-triphenyltetrazolium chloride in phosphate buffered saline at 37°C for 20 min and then fixed in 4% formaldehyde overnight. Images of the slices were obtained with a scanner and a computer. The infarct area and the total area were calculated by tracing the areas on the computer screen with Image J. The percentage of the infarct volume was expressed as the infarct volumes (white parts)/the whole volume of the cortex.

[5] = parameters: method as in Jiang et al., 2018; settings: brain microdialysis; ref Jiang et al., 2018; cited from earlier work
[6] = Excretion in rat urine, bile and feces after iv IMM-H004 citrate; format: in vivo; settings: iv IMM-H004 citrate 6 mg/kg
Method: After intravenous (iv) injection with IMM-H004 citrate (6 mg/kg, dissolved in saline to yield a concentration of 1.2 mg/ml), rats were housed individually in metabolic cages to allow separate collection of urine and feces until 72 h postdose. Additional rats were bile cannulated under light ether anesthesia. Each rat was housed individually in a metabolic cage and allowed to recover from anesthesia for 2 to 3 h. Then bile duct cannulated rats were iv injected with IMM-H004 citrate (6 mg/kg, dissolved in saline to yield a concentration of 1.2 mg/ml), bile samples were collected until 24 h postdose.
Feces samples were homogenized in 10-fold solvent of water and methanol (1:1) and diluted 10-fold in water. Bile and urine samples were diluted 100-fold in water. The concentrations of IMM-H004, M1, M2, and IMM-H004G in diluted bile, urine, and feces samples were determined by LC-MS/MS.
as §1

[7] = test system: recombinant human CYP450 enzymes; experiment: Metabolism by cDNA-expressed human CYP450 enzymes; format: in vitro ADME; settings: 1 μM IMM-H004, 50 pmol/ml CYP, 40 min
Method: CYP450s. IMM-H004 was incubated in triplicate with […] individual human complementary DNA (cDNA) expressed CYPs (CYP1A1, 1A2, 2A6, 2B6, 2C8, 2C9, 2C19, 2D6, 2E1, 2J2, 3A4, 4A11, 4F2, and 4F3) at 37°C. The incubation mixtures contained individual CYP450 enzymes (50 pmol/ml), IMM-H004 (1 μM), and NADPH regeneration system in a final volume of 0.2 ml Tris-HCl buffer (50 mM, pH 7.4) containing 5 mM MgCl2. The mixtures were incubated for 40 min before being quenched with two volumes of ice-cold acetonitrile containing IS (100 ng/ml). After vortex-mixing and centrifugation, M1 and M2 in the supernatant were analyzed by LC-MS/MS.

[8] = test system: chemokine-like factor 1; parameters: method as in earlier work; settings: ref Li et al., 2010, Kong et al., 2011, Sun et al., 2013, 2014, read-out: IC50 as antagonist of chemokine-like factor 1; cited from earlier work
[9] = test system: cell cultures; settings: not tested in this paper's methods; reference not given; cited from earlier work

Row | SMILES | cell viability of OGD-injured PC12 cells ([1]; 1 and 10 μM, 24 h, MTT, vs model group) | IMM-H004 detected in PC12 cultures after incubation with IMM-H004G ([1]; 24 h of incubation with IMM-H004G) | detection of metabolite in cell supernatant [2] | AUC(0-inf) [3] | AUC(0-t) [3] | Cmax [3] | MRT last ([3]; read-out: MRT(0-t)) | MRT inf ([3]; read-out: MRT(0-∞)) | half-life ([3]; read-out: t 1/2β (converted)) | Tmax ([3]; read-out: T max) | Tmax ([3]; read-out: time to maximum plasma concentration after dosing) | infarct volume [4] | neurological test score [4] | exposure of IMM-H004G in rat brain extracellular fluid relative to IMM-H004 [5] | recovery of IMM-H004G in bile ([6]; bile duct cannulated rats, until 24 h) | IMM-H004G in feces ([6]; rat feces) | urinary IMM-H004G recovered ([6]; rat urine, 72-h sampling period) | M1 formation in CYP450 enzyme incubations [7] | IC50 [8] | neuroprotective activity in cell cultures [9]
1 | COc1cc(OC2OC(C(=O)O)C(O)C(O)C2O)cc2oc(=O)c(N3CCN(C)CC3)c(C)c12 (stereo not shown) [IMM-H004G] | significant (p < 0.05) preservation of viability | only trace of IMM-H004 could be detected | could be detected | 29.1 µg·h/mL | 28.9 µg·h/mL | 13 µg/mL | 7.89 ± 0.57 h | 8.16 ± 0.65 h | 6.61 ± 0.86 h | 0.17 h | ≤ 0.25 h | markedly reduced (p < 0.01) | significant improvement (p < 0.01) | 10.5 fold | 75.9 % of intake | undetectable | 69.7 % of intake |  |  | 
2 | Cc1c(N2CCN(C)CC2)c(=O)oc2cc(O)cc(O)c12 [M1] |  |  | not detectable |  |  |  |  |  |  |  |  |  |  |  |  |  |  | could not be detected in all CYP450 enzymes incubations | 0.0212 µM | showed neuroprotective activity in cell cultures
3 | COc1cc(O)cc2oc(=O)c(N3CCNCC3)c(C)c12 [M2] |  |  | not detectable |  |  |  |  |  |  |  |  |  |  |  |  |  |  |  |  | 
